Common to all, as to assay: Bacterial susceptibility testing (MIC, broth microdilution)
Holding throughout (assay type): cell-based

Assay [1] has as its system P. aeruginosa ATCC27853. Conditions: Pseudomonas aeruginosa. An outline of the steps:
(§1)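 CLSI broth microdilution was run in cation-adjusted Mueller-Hinton broth with an inoculum of 3×10^5–7×10^5 CFU/mL and 2-fold compound dilutions. Plates were incubated in ambient air at 35° C for 18-24 h. MIC was the lowest concentration preventing visible growth (OD600 nm<0.05).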

Assay [2] deals with K. pneumoniae ATCC13883. Conditions: Klebsiella pneumoniae. Put shortly: as §1
In assay [3] the test system is P. aeruginosa PAO1. Conditions: Pseudomonas aeruginosa. Put shortly: as §1
Assay [4] concerns E. coli ATCC25922. Conditions: Escherichia coli. An outline of the steps: as §1
[5] abbreviates: ATCC27853, broth microdilution, cation adjusted Mueller-Hinton Broth, 35° C., 18-24 h, read-out: P. aeruginosa ATCC27853 MIC.
The mark [6] stands for this setting: ATCC13883, broth microdilution, cation adjusted Mueller-Hinton Broth, 35° C., 18-24 h, read-out: K. pneumoniae ATCC13883 MIC.
Setting [7] is: PAO1, broth microdilution, cation adjusted Mueller-Hinton Broth, 35° C., 18-24 h, read-out: P. aeruginosa PAO1 MIC.
The mark [8] stands for this setting: ATCC25922, broth microdilution, cation adjusted Mueller-Hinton Broth, 35° C., 18-24 h, read-out: E. coli ATCC25922 MIC.
The mark [9] stands for this setting: ATCC27853, read-out: P. aeruginosa ATCC27853 MIC.
The mark [10] stands for this setting: ATCC13883, read-out: K. pneumoniae ATCC13883 MIC.
[11] abbreviates: PAO1, read-out: P. aeruginosa PAO1 MIC.
Where [12] appears, read: ATCC25922, read-out: E. coli ATCC25922 MIC.

≈ marks a conversion by molar mass, not a printed value. Read-outs that look alike come from different tables or passages of the source. A value given as a limit tells only on which side of the number the result lay.

Broadly, the MIC is the lowest concentration found to suppress growth. `C[C@H](O)c1nccn1[C@@H](C#Cc1ccc(-c2ccc3c(c2)NC(=O)C3)cc1)CO` [Compound 84, 6-(4-((S)-4-hydroxy-3-(2-((S)-1-hydroxyethyl)-1H-imidazol-1-yl)but-1-yn-1-yl)phenyl)indolin-2-one]: the MIC in assay [1] (setting [5]) stood at 16 µg/mL (≈ 41.3 µM); in assay [2] (setting [6]), 32 µg/mL (≈ 82.6 µM); in assay [3] (setting [7]), 8 µg/mL (≈ 20.6 µM); in assay [4] (setting [8]) it was 8 µg/mL (≈ 20.6 µM).

Consider `C[C@H](O)c1nccn1[C@@H](C#Cc1ccc(-c2ccc3c(c2)CCN3)cc1)CO` [Compound 85, (S)-2-(2-((S)-1-hydroxyethyl)-1H-imidazol-1-yl)-4-(4-(indolin-5-yl)phenyl)but-3-yn-1-ol], for which the MIC in assay [1] (setting [5]) was > 32 µg/mL; in assay [2] (setting [6]) it was 2 µg/mL (≈ 5.36 µM); in assay [3] (setting [7]), 16 µg/mL (≈ 42.8 µM); in assay [4] (setting [8]), 1 µg/mL (≈ 2.68 µM).

Turning to `C[C@H](O)c1nccn1[C@@H](C#Cc1ccc(-c2ccc(OC3CN(CC(F)(F)F)C3)cc2)cc1)CO` [Compound 86, (S)-2-(2-((S)-1-hydroxyethyl)-1H-imidazol-1-yl)-4-(4′-((1-(2,2,2-trifluoroethyl)azetidin-3-yl)oxy)-[1,1′-biphenyl]-4-yl)but-3-yn-1-ol], the MIC amounted to 16 µg/mL (≈ 33 µM) in assay [1] (setting [9]), 2 µg/mL (≈ 4.12 µM) in assay [2] (setting [10]), 4 µg/mL (≈ 8.24 µM) in assay [3] (setting [11]) and 1 µg/mL (≈ 2.06 µM) in assay [4] (setting [12]).

For the compound `C[C@H](O)c1nccn1[C@@H](C#Cc1ccc(-c2ccc(OC3CN(C4(C#N)COC4)C3)cc2)cc1)CO` [Compound 87, 3-(3-((4′-((S)-4-hydroxy-3-(2-((S)-1-hydroxyethyl)-1H-imidazol-1-yl)but-1-yn-1-yl)-[1,1′-biphenyl]-4-yl)oxy)azetidin-1-yl)oxetane-3-carbonitrile], the MIC in assay [1] (setting [5]) was 8 µg/mL (≈ 16.5 µM); in assay [2] (setting [6]), 4 µg/mL (≈ 8.25 µM); in assay [3] (setting [7]), 4 µg/mL (≈ 8.25 µM); in assay [4] (setting [8]), 2 µg/mL (≈ 4.13 µM).

As to `CC(=O)N1CC(Oc2ccc(-c3ccc(C#C[C@@H](CO)n4ccnc4[C@H](C)O)cc3)cc2)C1` [Compound 88, 1-(3-((4′-((S)-4-hydroxy-3-(2-((S)-1-hydroxyethyl)-1H-imidazol-1-yl)but-1-yn-1-yl)-[1,1′-biphenyl]-4-yl)oxy)azetidin-1-yl)ethan-1-one], the MIC in assay [1] (setting [9]) came to 4 µg/mL (≈ 8.98 µM); in assay [2] (setting [10]), 2 µg/mL (≈ 4.49 µM); in assay [3] (setting [11]), 2 µg/mL (≈ 4.49 µM); in assay [4] (setting [12]), 1 µg/mL (≈ 2.24 µM).

Regarding `C[C@H](O)c1nccn1[C@@H](C#Cc1ccc(-c2ccc(OC3CN(S(C)(=O)=O)C3)cc2)cc1)CO` [Compound 89, (S)-2-(2-((S)-1-hydroxyethyl)-1H-imidazol-1-yl)-4-(4′-((1-(methylsulfonyl)azetidin-3-yl)oxy)-[1,1′-biphenyl]-4-yl)but-3-yn-1-ol], the MIC in assay [1] (setting [9]) came to 8 µg/mL (≈ 16.6 µM); in assay [2] (setting [10]), 2 µg/mL (≈ 4.15 µM); in assay [3] (setting [11]) it was 4 µg/mL (≈ 8.31 µM); in assay [4] (setting [12]), 1 µg/mL (≈ 2.08 µM).

Turning to `CNC(=O)N1CC(Oc2ccc(-c3ccc(C#C[C@@H](CO)n4ccnc4[C@H](C)O)cc3)cc2)C1` [Compound 90, 3-((4′-((S)-4-hydroxy-3-(2-((S)-1-hydroxyethyl)-1H-imidazol-1-yl)but-1-yn-1-yl)-[1,1′-biphenyl]-4-yl)oxy)-N-methylazetidine-1-carboxamide], the MIC in assay [1] (setting [5]) stood at 2 µg/mL (≈ 4.34 µM); in assay [2] (setting [6]), 4 µg/mL (≈ 8.69 µM); in assay [3] (setting [7]), 1 µg/mL (≈ 2.17 µM); in assay [4] (setting [8]), 2 µg/mL (≈ 4.34 µM).

With `C[C@H](O)c1nccn1[C@@H](C#Cc1ccc(-c2ccc(OC3CN(C(=O)CO)C3)cc2)cc1)CO` [Compound 91, 2-hydroxy-1-(3-((4′-((S)-4-hydroxy-3-(2-((S)-1-hydroxyethyl)-1H-imidazol-1-yl)but-1-yn-1-yl)-[1,1′-biphenyl]-4-yl)oxy)azetidin-1-yl)ethan-1-one], the MIC turned out to be 4 µg/mL (≈ 8.67 µM) in assay [1] (setting [9]), 4 µg/mL (≈ 8.67 µM) in assay [2] (setting [10]), 2 µg/mL (≈ 4.33 µM) in assay [3] (setting [11]) and 2 µg/mL (≈ 4.33 µM) in assay [4] (setting [12]).

Consider `C[C@H](O)c1nccn1[C@@H](C#Cc1ccc(-c2ccc(OC3CN(CC#N)C3)cc2)cc1)CO` [Compound 92, 2-(3-((4′-((S)-4-hydroxy-3-(2-((S)-1-hydroxyethyl)-1H-imidazol-1-yl)but-1-yn-1-yl)-[1,1′-biphenyl]-4-yl)oxy)azetidin-1-yl)acetonitrile], for which the MIC stood at 6 µg/mL (≈ 13.6 µM) in assay [1] (setting [9]), 1.5 µg/mL (≈ 3.39 µM) in assay [2] (setting [10]), 3 µg/mL (≈ 6.78 µM) in assay [3] (setting [11]) and 0.75 µg/mL (≈ 1.69 µM) in assay [4] (setting [12]).

Regarding `C[C@H](O)c1nccn1[C@@H](C#Cc1ccc(-c2ccc(OC3CN(CCC#N)C3)cc2)cc1)CO` [Compound 93, 3-(3-((4′-((S)-4-hydroxy-3-(2-((S)-1-hydroxyethyl)-1H-imidazol-1-yl)but-1-yn-1-yl)-[1,1′-biphenyl]-4-yl)oxy)azetidin-1-yl)propanenitrile], the MIC stood at 4 µg/mL (≈ 8.76 µM) in assay [1] (setting [9]), 1 µg/mL (≈ 2.19 µM) in assay [2] (setting [10]), 2 µg/mL (≈ 4.38 µM) in assay [3] (setting [11]) and 0.5 µg/mL (≈ 1.1 µM) in assay [4] (setting [12]).

Turning to `C[C@H](O)c1nccn1[C@@H](C#Cc1ccc(-c2ccc(OC3CN(C(N)=O)C3)cc2)cc1)CO` [Compound 94, 3-((4′-((S)-4-hydroxy-3-(2-((S)-1-hydroxyethyl)-1H-imidazol-1-yl)but-1-yn-1-yl)-[1,1′-biphenyl]-4-yl)oxy)azetidine-1-carboxamide], the MIC in assay [1] (setting [9]) was 2 µg/mL (≈ 4.48 µM); in assay [2] (setting [10]), 4 µg/mL (≈ 8.96 µM); in assay [3] (setting [11]) it was 2 µg/mL (≈ 4.48 µM); in assay [4] (setting [12]) it was 1 µg/mL (≈ 2.24 µM).

As for `C[C@H](O)c1nccn1[C@@H](C#Cc1ccc(-c2ccc(OC3CN(C(=O)N(C)C)C3)cc2)cc1)CO` [Compound 95, 3-((4′-((S)-4-hydroxy-3-(2-((S)-1-hydroxyethyl)-1H-imidazol-1-yl)but-1-yn-1-yl)-[1,1′-biphenyl]-4-yl)oxy)-N,N-dimethylazetidine-1-carboxamide], the MIC amounted to 4 µg/mL (≈ 8.43 µM) in assay [1] (setting [9]), 2 µg/mL (≈ 4.21 µM) in assay [2] (setting [10]), 2 µg/mL (≈ 4.21 µM) in assay [3] (setting [11]) and 0.5 µg/mL (≈ 1.05 µM) in assay [4] (setting [12]).

In the case of `C[C@H](O)c1nccn1[C@@H](C#Cc1ccc(-c2ccc(OC3CN(C(=O)N4CCOCC4)C3)cc2)cc1)CO` [Compound 96, (3-((4′-((S)-4-hydroxy-3-(2-((S)-1-hydroxyethyl)-1H-imidazol-1-yl)but-1-yn-1-yl)-[1,1′-biphenyl]-4-yl)oxy)azetidin-1-yl)(morpholino)methanone], the MIC in assay [1] (setting [9]) came out at 8 µg/mL (≈ 15.5 µM); in assay [2] (setting [10]), 8 µg/mL (≈ 15.5 µM); in assay [3] (setting [11]), 8 µg/mL (≈ 15.5 µM); in assay [4] (setting [12]), 2 µg/mL (≈ 3.87 µM).

Consider `C[C@H](O)c1nccn1[C@@H](C#Cc1ccc(-c2ccc(OC3CN(c4nccn4C)C3)cc2)cc1)CO` [Compound 98, (S)-2-(2-((S)-1-hydroxyethyl)-1H-imidazol-1-yl)-4-(4′-((1-(1-methyl-1H-imidazol-2-yl)azetidin-3-yl)oxy)-[1,1′-biphenyl]-4-yl)but-3-yn-1-ol], for which the MIC in assay [1] (setting [9]) came to 8 µg/mL (≈ 16.5 µM); in assay [2] (setting [10]), 2 µg/mL (≈ 4.14 µM); in assay [3] (setting [11]), 4 µg/mL (≈ 8.27 µM); in assay [4] (setting [12]), 0.5 µg/mL (≈ 1.03 µM).

As to `C[C@H](O)c1nccn1[C@@H](C#Cc1ccc(-c2ccc(N3CCC3)cc2)cc1)CO` [Compound 108, (S)-4-(4′-(azetidin-1-yl)-[1,1′-biphenyl]-4-yl)-2-(2-((S)-1-hydroxyethyl)-1H-imidazol-1-yl)but-3-yn-1-ol], the MIC was > 32 µg/mL in assay [1] (setting [5]), > 32 µg/mL in assay [2] (setting [6]), > 32 µg/mL in assay [3] (setting [7]) and 0.38 µg/mL (≈ 0.981 µM) in assay [4] (setting [8]).

As for `COC1CN(c2ccc(-c3ccc(C#C[C@@H](CO)n4ccnc4[C@H](C)O)cc3)cc2)C1` [Compound 110, (S)-2-(2-((S)-1-hydroxyethyl)-1H-imidazol-1-yl)-4-(4′-(3-methoxyazetidin-1-yl)-[1,1′-biphenyl]-4-yl)but-3-yn-1-ol], the MIC in assay [1] (setting [5]) is > 32 µg/mL; in assay [2] (setting [6]) it was 1.2 µg/mL (≈ 2.87 µM); in assay [3] (setting [7]), > 32 µg/mL; in assay [4] (setting [8]), 0.38 µg/mL (≈ 0.91 µM).

For `C[C@H](O)c1nccn1[C@@H](C#Cc1ccc(-c2ccc(C3CC(C)(O)C3)cc2)cc1)CO` (stereo partly drawn) [Compound 111, 3-(4′-((S)-4-hydroxy-3-(2-((S)-1-hydroxyethyl)-1H-imidazol-1-yl)but-1-yn-1-yl)-[1,1′-biphenyl]-4-yl)-1-methylcyclobutan-1-ol], the MIC in assay [1] (setting [5]) is 2 µg/mL (≈ 4.8 µM); in assay [2] (setting [6]) it was 0.5 µg/mL (≈ 1.2 µM); in assay [3] (setting [7]), 1.5 µg/mL (≈ 3.6 µM); in assay [4] (setting [8]), 0.25 µg/mL (≈ 0.6 µM).

In the case of `C[C@H](O)c1nccn1[C@@H](C#Cc1ccc(-c2ccn(C)c(=O)c2)cc1)CO` [Compound 112, 4-(4-((S)-4-hydroxy-3-(2-((S)-1-hydroxyethyl)-1H-imidazol-1-yl)but-1-yn-1-yl)phenyl)-1-methylpyridin-2(1H)-one], the MIC in assay [1] (setting [5]), in assay [2] (setting [6]), in assay [3] (setting [7]) and in assay [4] (setting [8]) was > 32 µg/mL in each case.

Turning to `C[C@H](O)c1nccn1[C@@H](C#Cc1ccc(-c2ccc(C3COC3)cc2)cc1)CO` [Compound 128, (S)-2-(2-((S)-1-hydroxyethyl)-1H-imidazol-1-yl)-4-(4′-(oxetan-3-yl)-[1,1′-biphenyl]-4-yl)but-3-yn-1-ol], the MIC stood at 4 µg/mL (≈ 10.3 µM) in assay [1] (setting [5]), 1 µg/mL (≈ 2.57 µM) in assay [2] (setting [6]), 2 µg/mL (≈ 5.15 µM) in assay [3] (setting [7]) and 0.25 µg/mL (≈ 0.644 µM) in assay [4] (setting [8]).

As to `C[C@H](O)c1nccn1[C@@H](C#Cc1ccc(-c2ccc(OC3(C)COC3)cc2)cc1)CO` [Compound 136, (S)-2-(2-((S)-1-hydroxyethyl)-1H-imidazol-1-yl)-4-(4′-((3-methyloxetan-3-yl)oxy)-[1,1′-biphenyl]-4-yl)but-3-yn-1-ol], the MIC is 4 µg/mL (≈ 9.56 µM) in assay [1] (setting [5]), 0.5 µg/mL (≈ 1.19 µM) in assay [2] (setting [6]), 2 µg/mL (≈ 4.78 µM) in assay [3] (setting [7]) and 0.25 µg/mL (≈ 0.597 µM) in assay [4] (setting [8]).

The record behind these values is US20260049092A1, “ANTIBACTERIAL COMPOUNDS” (Blacksmith Medicines, Inc., priority 2022, published 2026).
